In patent US8389558B2, “Bendamustine amphiphilic anionic compositions” (Supratek Pharma Inc., priority 2009, dated 2013):
Structures can show the parent of a compound that is named as a salt.

Tests used:
[1] = Bendamustine chemical stability in formulations with amphiphilic anionic agents and phosphate buffer (HPLC, first order kinetics); format: physicochemical; conditions: 0.6 mg/mL bendamustine, 1% (w/v) aqueous amphiphilic anionic agent, 6 mM phosphate buffer pH 7.2, 25° C.; read-out: decomposition half time (T½) of bendamustine
Method: Formulations were prepared by dissolving bendamustine hydrochloride in pre-equilibrated 1% (w/v) aqueous solution of amphiphilic anionic agent containing 6 mM phosphate buffer, pH 7.2. The final concentration of bendamustine was 0.6 mg/mL. The formulations were incubated at 25° C., and were periodically analyzed by HPLC as follows. 10 μL samples were separated using Waters SymmetryShield RP-18 3.5 μm column (4.6×50 mm) at the flow of 1.5 mL/min of acetonitrile-water gradient containing 0.1% TFA. Peak detection has been performed with means of UV absorption detection at 260 nm. The area of the peak of Bendamustine was used to evaluate the rate of drug decomposition in the first order kinetics model.

[2] = 23° C.; cited from earlier work

SMILES	half-life at 0.6 mg/mL [1] [min]	time for which stable in saline solution [2] [h]
Cn1c(CCCC(=O)O)nc2cc(N(CCCl)CCCl)ccc21 [Control (phosphate buffer), bendamustine hydrochloride]	44	–
Cn1c(CCCC(=O)O)nc2cc(N(CCCl)CCCl)ccc21 [bendamustine hydrochloride]	–	9
